Molecular target: T1, TLR9 (Homo sapiens, UniProt Q9NR96)
T1 construct: expressed in transfected cells; host or cells: HEK293
T1 sequence (Q9NR96 26-1032): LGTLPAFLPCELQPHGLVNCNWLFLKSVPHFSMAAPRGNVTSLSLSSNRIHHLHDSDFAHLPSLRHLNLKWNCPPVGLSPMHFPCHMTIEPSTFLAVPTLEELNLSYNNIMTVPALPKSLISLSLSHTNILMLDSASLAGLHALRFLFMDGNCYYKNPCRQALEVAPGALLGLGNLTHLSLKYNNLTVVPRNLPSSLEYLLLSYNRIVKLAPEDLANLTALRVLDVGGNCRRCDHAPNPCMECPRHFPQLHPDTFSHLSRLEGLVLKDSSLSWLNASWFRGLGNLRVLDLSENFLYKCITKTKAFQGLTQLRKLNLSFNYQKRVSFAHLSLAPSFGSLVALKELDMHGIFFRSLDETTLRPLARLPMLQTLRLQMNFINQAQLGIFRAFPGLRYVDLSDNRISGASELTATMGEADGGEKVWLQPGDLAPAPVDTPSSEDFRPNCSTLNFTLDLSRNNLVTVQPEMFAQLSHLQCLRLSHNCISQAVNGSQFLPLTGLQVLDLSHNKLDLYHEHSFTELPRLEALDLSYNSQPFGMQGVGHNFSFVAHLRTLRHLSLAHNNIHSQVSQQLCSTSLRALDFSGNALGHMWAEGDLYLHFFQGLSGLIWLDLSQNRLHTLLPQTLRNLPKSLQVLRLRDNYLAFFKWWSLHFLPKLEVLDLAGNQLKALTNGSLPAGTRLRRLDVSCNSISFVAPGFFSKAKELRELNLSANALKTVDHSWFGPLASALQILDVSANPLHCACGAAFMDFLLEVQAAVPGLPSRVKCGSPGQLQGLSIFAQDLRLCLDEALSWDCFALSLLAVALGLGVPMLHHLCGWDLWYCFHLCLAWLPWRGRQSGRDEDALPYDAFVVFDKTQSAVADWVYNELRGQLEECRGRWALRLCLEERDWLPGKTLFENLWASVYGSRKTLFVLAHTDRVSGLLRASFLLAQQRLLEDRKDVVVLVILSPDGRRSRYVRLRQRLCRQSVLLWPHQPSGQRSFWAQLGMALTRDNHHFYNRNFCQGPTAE
Assay: TLR9 screening of (+)-morphinan library, SEAP reporter in HEK293 cells expressing TLR9
Assay type: cell-based
Details: activator ODN2006; for OD 650 nm (mean ± sd): control (no activator) 0.14, activator 1.42 OD; for inhibition at 0.1 µM: HEK293, read-out: % Inhibition (mean), 100 nM; for inhibition at 10 µM: HEK293, read-out: % Inhibition (mean), 10 μM
Procedure: The secreted alkaline phosphatase reporter is under the control of a promoter inducible by the transcription factor NF-κB. A library of more than 100 (+)-morphinan compounds was screened for TLR9 antagonist activity by assessing NF-κB activation in the HEK293 cells expressing TLR9. This reporter gene allows the monitoring of signaling through the TLR, based on the activation of NF-κB.
In a 96-well plate (200 μL total volume) containing 50,000 cells/well, 20 μL of each sample compound was added to wells, in triplicate, followed by a 30 minute incubation at 37° C. and 5% CO2. After the 30 minutes of incubation, 20 μL of the activator ODN2006 was added to each well. The media added to the wells was designed for the detection of NF-κB induced SEAP expression. After a 16-20 hr incubation period, the OD at 650 nm was read on a Beckman Coulter AD 340C Absorbance Detector. All compounds were tested at concentrations of 10 μM and 100 nM.

SMILES: COc1ccc2c3c1O[C@@H]1C(O)CC[C@]4(O)[C@H](C2)N(CC2CC2)CC[C@@]314 (single isomer, unassigned) [II-53a]
- % Inhibition (mean) (100 nM, 0.1 µM): 14%
- OD 650 nm (mean ± sd) (100 nM): 1.22 ± 0.05 OD
- % Inhibition (mean) (10 μM): 7%
- OD 650 nm (mean ± sd) (10 μM): 1.32 ± 0.13 OD

SMILES: COc1ccc2c3c1O[C@@H]1C(O)CC[C@]4(O)[C@H](C2)N(CC2CC2)CC[C@@]314 (single isomer, unassigned) [II-53b]
- % Inhibition (mean) (100 nM, 0.1 µM): 1%
- OD 650 nm (mean ± sd) (100 nM): 1.41 ± 0.09 OD
- % Inhibition (mean) (10 μM): 29%
- OD 650 nm (mean ± sd) (10 μM): 1.00 ± 0.03 OD

SMILES: C=CCN1CC[C@@]23c4c5ccc(OC)c4OC2C(OC(C)=O)CC[C@@H]3C1C5 (single isomer, unassigned) [II-94a]
- OD 650 nm (mean ± sd) (100 nM): 1.13 ± 0.04 OD
- % Inhibition (mean) (10 μM): 18%
- OD 650 nm (mean ± sd) (10 μM): 1.16 ± 0.08 OD
- inhibition at 0.1 µM: 20%

SMILES: C=CCN1CC[C@@]23c4c5ccc(OC)c4OC2C(OC(C)=O)CC[C@@H]3C1C5 (single isomer, unassigned) [II-94b]
- % Inhibition (mean) (100 nM, 0.1 µM): 17%
- OD 650 nm (mean ± sd) (100 nM): 1.17 ± 0.03 OD
- % Inhibition (mean) (10 μM): 8%
- OD 650 nm (mean ± sd) (10 μM): 1.30 ± 0.05 OD

SMILES: C=CCN1CC[C@@]23c4c5ccc(OC)c4O[C@@H]2[C@H](O)CC[C@]3(O)[C@@H]1C5 (stereo in doubt) [II-48]
- inhibition at 10 µM: 13%

SMILES: COc1cc(Br)c2c(c1O)[C@@]13CCNC(C2)C1CCC(=O)C3 (stereo partly shown) [Compound I-1]
- OD 650 nm (mean ± sd) (100 nM): 1.18 ± 0.10 OD
- OD 650 nm (mean ± sd) (10 μM): 0.21 ± 0.01 OD
- inhibition at 0.1 µM: 17%
- inhibition at 10 µM: 85%

SMILES: COc1cc(Br)c2c(c1O)[C@@]13CCN(CC4CC4)C(C2)C1CCC(=O)C3 (stereo partly shown) [Compound I-2]
- OD 650 nm (mean ± sd) (100 nM): 1.10 ± 0.06 OD
- OD 650 nm (mean ± sd) (10 μM): 0.14 ± 0.02 OD
- inhibition at 0.1 µM: 22%
- inhibition at 10 µM: 90%

SMILES: C=CCN1CC[C@@]23CC(=O)CCC2C1Cc1c(-c2ccoc2)cc(OC)c(O)c13 (stereo partly shown) [Compound I-3]
- OD 650 nm (mean ± sd) (100 nM): 1.12 ± 0.01 OD
- OD 650 nm (mean ± sd) (10 μM): 0.11 ± 0.00 OD
- inhibition at 0.1 µM: 21%
- inhibition at 10 µM: 92%

SMILES: COC(=O)CCc1cc(OC)c(O)c2c1CC1C3CCC(=O)C[C@@]23CCN1CC1CC1 (stereo partly shown) [Compound I-4]
- OD 650 nm (mean ± sd) (100 nM): 1.17 ± 0.06 OD
- OD 650 nm (mean ± sd) (10 μM): 0.46 ± 0.05 OD
- inhibition at 0.1 µM: 18%
- inhibition at 10 µM: 68%

SMILES: COc1ccc2c(c1O)[C@@]13CCN(CC4CC4)C(C2)C1CCC(=O)C3 (stereo partly shown) [Compound I-6]
- OD 650 nm (mean ± sd) (100 nM): 1.29 ± 0.07 OD
- OD 650 nm (mean ± sd) (10 μM): 0.12 ± 0.02 OD
- inhibition at 0.1 µM: 9%
- inhibition at 10 µM: 91%

SMILES: C=CCN1CC[C@@]23CC(=O)CCC2C1Cc1ccc(OC)c(O)c13 (stereo partly shown) [Compound I-7]
- OD 650 nm (mean ± sd) (100 nM): 1.14 ± 0.03 OD
- OD 650 nm (mean ± sd) (10 μM): 0.16 ± 0.01 OD
- inhibition at 0.1 µM: 20%
- inhibition at 10 µM: 89%

SMILES: COc1cc(Br)c2c(c1O)[C@@]13CCN(CC4CCC4)C(C2)C1CCC(=O)C3 (stereo partly shown) [Compound I-8]
- OD 650 nm (mean ± sd) (100 nM): 1.13 ± 0.07 OD
- OD 650 nm (mean ± sd) (10 μM): 0.11 ± 0.01 OD
- inhibition at 0.1 µM: 20%
- inhibition at 10 µM: 92%

SMILES: COc1ccc2c(c1O)[C@@]13CCN(C)[C@@H](C2)[C@@]1(O)CC(OC)C(=O)C3 (stereo partly shown) [Compound I-9]
- OD 650 nm (mean ± sd) (100 nM): 1.50 ± 0.10 OD
- OD 650 nm (mean ± sd) (10 μM): 1.03 ± 0.01 OD
- inhibition at 0.1 µM: -6%
- inhibition at 10 µM: 28%

SMILES: COc1ccc2c(c1O)[C@@]13CCN(C)[C@@H](C2)[C@H]1CC(OC)C(O)C3 (stereo partly shown) [Compound I-10]
- OD 650 nm (mean ± sd) (100 nM): 1.32 ± 0.04 OD
- OD 650 nm (mean ± sd) (10 μM): 1.04 ± 0.08 OD
- inhibition at 0.1 µM: 7%
- inhibition at 10 µM: 27%

SMILES: CCOC(=O)N1CC[C@@]23CC(=O)CCC2C1Cc1c(Br)cc(OC)c(O)c13 (stereo partly shown) [Compound I-11]
- OD 650 nm (mean ± sd) (100 nM): 1.49 ± 0.04 OD
- OD 650 nm (mean ± sd) (10 μM): 1.98 ± 0.09 OD
- inhibition at 0.1 µM: -5%
- inhibition at 10 µM: -39%

SMILES: COc1cc(Br)c2c(c1OC(C)=O)[C@@]13CCN(CC4CC4)C(C2)C1CCC(=O)C3 (stereo partly shown) [Compound I-12]
- OD 650 nm (mean ± sd) (100 nM): 1.19 ± 0.07 OD
- OD 650 nm (mean ± sd) (10 μM): 0.13 ± 0.01 OD
- inhibition at 0.1 µM: 16%
- inhibition at 10 µM: 91%

SMILES: COc1cc(-c2ccoc2)c2c(c1O)[C@@]13CCN(CC4CC4)C(C2)C1CCC(=O)C3 (stereo partly shown) [Compound I-13]
- OD 650 nm (mean ± sd) (100 nM): 1.34 ± 0.12 OD
- OD 650 nm (mean ± sd) (10 μM): 0.13 ± 0.01 OD
- inhibition at 0.1 µM: 6%
- inhibition at 10 µM: 91%

SMILES: C=CCN1CC[C@@]23CC(=O)C(OC)C[C@@H]2[C@@H]1Cc1ccc(OC)c(O)c13 (stereo partly shown) [Compound I-16]
- OD 650 nm (mean ± sd) (100 nM): 1.50 ± 0.01 OD
- OD 650 nm (mean ± sd) (10 μM): 0.91 ± 0.04 OD
- inhibition at 0.1 µM: -5%
- inhibition at 10 µM: 36%

SMILES: COc1ccc2c(c1O)[C@@]13CCN(CC4CC4)[C@@H](C2)[C@@]1(O)CC(OC)C(=O)C3 (stereo partly shown) [Compound I-18]
- OD 650 nm (mean ± sd) (100 nM): 1.40 ± 0.14 OD
- OD 650 nm (mean ± sd) (10 μM): 1.01 ± 0.06 OD
- inhibition at 0.1 µM: 1%
- inhibition at 10 µM: 29%

SMILES: COc1ccc2c(c1O)[C@]13C=CCC[C@]1(O)[C@H](C2)N(C)CC3 [Compound I-22]
- OD 650 nm (mean ± sd) (100 nM): 0.93 ± 0.15 OD
- OD 650 nm (mean ± sd) (10 μM): 0.10 ± 0.01 OD
- inhibition at 0.1 µM: 34%
- inhibition at 10 µM: 93%

SMILES: COc1ccc2c(c1O)[C@@]13CCN(C)[C@@H](C2)[C@@]1(O)CCC(=O)C3 [Compound I-25]
- OD 650 nm (mean ± sd) (100 nM): 1.08 ± 0.05 OD
- OD 650 nm (mean ± sd) (10 μM): 0.52 ± 0.07 OD
- inhibition at 0.1 µM: 24%
- inhibition at 10 µM: 63%

SMILES: COc1ccc2c(c1OCc1ccccc1)[C@@]13CCN[C@@H](C2)[C@H]1CC(OC)C(=O)C3 (stereo partly shown) [Compound I-26]
- OD 650 nm (mean ± sd) (100 nM): 1.15 ± 0.03 OD
- OD 650 nm (mean ± sd) (10 μM): 0.19 ± 0.02 OD
- inhibition at 0.1 µM: 19%
- inhibition at 10 µM: 87%

SMILES: C=C(C)c1cc(OC)c(O)c2c1CC1C3CCC(=O)C[C@@]23CCN1CC1CC1 (stereo partly shown) [Compound I-27]
- OD 650 nm (mean ± sd) (100 nM): 1.13 ± 0.04 OD
- OD 650 nm (mean ± sd) (10 μM): 0.10 ± 0.00 OD
- inhibition at 0.1 µM: 20%
- inhibition at 10 µM: 93%

SMILES: COC1=C[C@@H]2[C@@H]3Cc4ccc(OC)c(O)c4[C@]2(CCN3C)CC1O (stereo partly shown) [Compound I-28]
- OD 650 nm (mean ± sd) (100 nM): 1.24 ± 0.02 OD
- OD 650 nm (mean ± sd) (10 μM): 0.12 ± 0.01 OD
- inhibition at 0.1 µM: 13%
- inhibition at 10 µM: 91%

SMILES: COc1ccc2c(c1O)[C@@]13CCN(CC4CCC4)[C@@H](C2)C1CCC(=O)C3 (stereo partly shown) [Compound I-29]
- OD 650 nm (mean ± sd) (100 nM): 1.06 ± 0.03 OD
- OD 650 nm (mean ± sd) (10 μM): 0.11 ± 0.00 OD
- inhibition at 0.1 µM: 25%
- inhibition at 10 µM: 92%

Reference: patent US10363251B2, “(+)-morphinans as antagonists of toll-like receptor 9 and therapeutic uses thereof” (Mallinckrodt LLC, priority 2009, dated 2019)
